Assay results published in ChEMBL document CHEMBL1201862, “PubChem BioAssay data set” (2004).
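Interpolation was linear, between the two tested concentrations surrounding the appropriate level; five concentrations were tested over 48 hours in 96-well plates. Abbreviation: GI50, concentration required for 50% inhibition of growth.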 The source made the active and inactive calls. Rule as the data show it: active = GI50 up to about 1.1 µM and inactive = higher.

Tests used:
Assay in all cases: inhibition of tumour cell growth, NCI panel, 48 h
MDA-MB-231 = system: MDA-MB-231
CCRF-CEM = system: CCRF-CEM
786-0 = system: 786-0
SN12C = system: SN12C
OVCAR-5 = system: OVCAR-5
KM12 = system: KM12
MDA-N = system: MDA-N
SK-MEL-5 = system: SK-MEL-5
IGROV-1 = system: IGROV-1
NCI-H522 = system: NCI-H522
NCI-H226 = system: NCI-H226
EKVX = system: EKVX
MOLT-4 = system: MOLT-4
SNB-75 = system: SNB-75
NCI-H23 = system: NCI-H23
SF-268 = system: SF-268
HL-60 = system: HL-60
K562 = system: K562
M14 = system: M14
MDA-MB-435 = system: MDA-MB-435
MCF7 = system: MCF7
UACC-257 = system: UACC-257
HT-29 = system: HT-29
DU-145 = system: DU-145
UACC-62 = system: UACC-62
A549 = system: A549
SF-539 = system: SF-539
PC-3 = system: PC-3
Hs-578T = system: Hs-578T
HOP-62 = system: HOP-62
RXF 393 = system: RXF 393
LOX IMVI = system: LOX IMVI
NCI/ADR-RES = system: NCI/ADR-RES
RPMI-8226 = system: RPMI-8226
HOP-92 = system: HOP-92
SR = system: SR
SK-MEL-28 = system: SK-MEL-28
T47D = system: T47D
HCT-15 = system: HCT-15
SK-OV-3 = system: SK-OV-3
OVCAR-3 = system: OVCAR-3
NCI-H460 = system: NCI-H460
BT-549 = system: BT-549
SF-295 = system: SF-295
HCT-116 = system: HCT-116
TK-10 = system: TK-10
UO-31 = system: UO-31
OVCAR-8 = system: OVCAR-8
SNB-19 = system: SNB-19
A498 = system: A498
SK-MEL-2 = system: SK-MEL-2
U-251 = system: U-251
SW-620 = system: SW-620
COLO 205 = system: COLO 205
ACHN = system: ACHN
OVCAR-4 = system: OVCAR-4

For `COC(=O)C(Cc1ccc2c(c1)CCC2)Cc1ccc2c(c1)CCC2`, the GI50 (MDA-MB-231) was > 100 µM (inactive), the GI50 (CCRF-CEM) was 32.4 µM (inactive) and the GI50 (786-0) was 78.2 µM (inactive). For the same compound, the GI50 (SN12C) was > 100 µM (inactive), the GI50 (OVCAR-5) was > 100 µM (inactive) and the GI50 (KM12) was 37.3 µM (inactive). For the same compound, the GI50 (MDA-N) was 59.3 µM (inactive), the GI50 (SK-MEL-5) was 25.9 µM (inactive) and the GI50 (IGROV-1) was > 100 µM (inactive). For the same compound, the GI50 (NCI-H522) was 32.9 µM (inactive), the GI50 (NCI-H226) was 42.5 µM (inactive) and the GI50 (EKVX) was 44.8 µM (inactive). The GI50 (MOLT-4) was 40.3 µM (inactive), the GI50 (SNB-75) was 71.3 µM (inactive) and the GI50 (NCI-H23) was 29.6 µM (inactive). The GI50 (SF-268) was 48.6 µM (inactive), the GI50 (HL-60) was 23 µM (inactive) and the GI50 (K562) was 43.1 µM (inactive). The GI50 (M14) was 80 µM (inactive), the GI50 (MDA-MB-435) was 48.8 µM (inactive) and the GI50 (MCF7) was 31.5 µM (inactive). For the same compound, the GI50 (UACC-257) was 37 µM (inactive), the GI50 (HT-29) was 29.4 µM (inactive) and the GI50 (DU-145) was > 100 µM (inactive). For the same compound, the GI50 (UACC-62) was > 100 µM (inactive), the GI50 (A549) was 41.3 µM (inactive) and the GI50 (SF-539) was > 100 µM (inactive). For the same compound, the GI50 (PC-3) was 73.3 µM (inactive), the GI50 (Hs-578T) was > 100 µM (inactive) and the GI50 (HOP-62) was > 100 µM (inactive). For the same compound, the GI50 (RXF 393) was 31 µM (inactive), the GI50 (LOX IMVI) was 20.8 µM (inactive) and the GI50 (NCI/ADR-RES) was > 100 µM (inactive). The GI50 (RPMI-8226) was 26.1 µM (inactive), the GI50 (HOP-92) was 31.3 µM (inactive) and the GI50 (SR) was 57 µM (inactive). For the same compound, the GI50 (SK-MEL-28) was 94.4 µM (inactive), the GI50 (T47D) was 20.9 µM (inactive) and the GI50 (HCT-15) was 89.7 µM. For the same compound, the GI50 (SK-OV-3) was > 100 µM (inactive), the GI50 (OVCAR-3) was 85.1 µM (inactive) and the GI50 (NCI-H460) was 53.2 µM (inactive). The GI50 (BT-549) was 27.1 µM (inactive), the GI50 (SF-295) was 36.6 µM (inactive) and the GI50 (HCT-116) was 66.2 µM (inactive). For the same compound, the GI50 (TK-10) was > 100 µM (inactive), the GI50 (UO-31) was 53.3 µM (inactive) and the GI50 (OVCAR-8) was 53.6 µM (inactive). The GI50 (SNB-19) was > 100 µM (inactive), the GI50 (A498) was 38.1 µM (inactive) and the GI50 (SK-MEL-2) was 18.4 µM (inactive). For the same compound, the GI50 (U-251) was 51.9 µM (inactive), the GI50 (SW-620) was > 100 µM (inactive) and the GI50 (COLO 205) was 92.7 µM (inactive). For the same compound, the GI50 (ACHN) was 68.7 µM (inactive) and the GI50 (OVCAR-4) was > 100 µM (inactive).
